The results in this text go back to ChEMBL document CHEMBL1201862, “PubChem BioAssay data set” (2004).

Structures can show the parent of a compound that is named as a salt.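 How tested: cells in 96-well plates exposed to compound for 48 hours at five concentrations. GI50 = concentration required for 50% inhibition of growth.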 Active and inactive are the calls of the source. Cut-off read from the data, not from the text of the source: active = GI50 up to about 1.1 µM and inactive = higher.

Among the test systems are MOLT-4; SK-MEL-28; SF-295; MDA-MB-435; HOP-62; HCC 2998; HL-60; SNB-75; T47D; COLO 205; OVCAR-3; UO-31; NCI/ADR-RES; HOP-92; RPMI-8226; HCT-15; SF-539; SNB-19; HT-29; CAKI-1.
Common to all, as to experiment: NCI-60 cell line screen, 48 h

Regarding `CC[C@](C)(O)C(=O)O[C@H]1C(=O)O[C@@H]2C[C@H]3C(C)=CC(=O)[C@@H](O)[C@]3(C)[C@H]3[C@@]4(O)OC[C@]32[C@@H]1[C@@H](C)[C@H]4O` [GLAUCARUBINONE], the GI50 is 0.05 µM (active) in the assay with MOLT-4; 0.05 µM (active) in the assay on SK-MEL-28; 0.116 µM (active) with SF-295; 1.4 µM (inactive) with MDA-MB-435; 0.0794 µM (active) with HOP-62; 0.0679 µM (active) in the assay on HCC 2998. Moreover, the GI50 with HL-60 was 0.05 µM (active); in the assay with SNB-75, 0.0585 µM (active); with T47D it was 0.176 µM (active); with COLO 205, 0.815 µM (active); in the assay with OVCAR-3, 0.0982 µM (active); in the assay with UO-31, 0.378 µM (active). Moreover, the GI50 with NCI/ADR-RES was 2.27 µM (inactive); in the assay on HOP-92, 0.049 µM (active); in the assay on RPMI-8226 it was 0.0548 µM (active); in the assay with HCT-15, 0.0885 µM; with SF-539 it was 0.05 µM (active); in the assay with SNB-19, 0.0933 µM (active).
On to `CN1CCN(c2cc3c(cc2F)c(=O)c(C(=O)O)cn3C2CC2)CC1CC#N` (stereo unspecified), for which the GI50 in the assay with MOLT-4, in the assay on SK-MEL-28, in the assay with SF-295, in the assay on HT-29, in the assay on CAKI-1 and in the assay on MDA-MB-435 was > 100 µM (inactive) throughout. Further, the GI50 in the assay on HOP-62, in the assay with HCC 2998, with HL-60, with SNB-75, in the assay with T47D and in the assay with COLO 205 was > 100 µM (inactive) each time. The GI50 with OVCAR-3 was > 100 µM (inactive); in the assay on UO-31, > 100 µM (inactive); with NCI/ADR-RES it was > 100 µM (inactive); in the assay with RPMI-8226, > 100 µM (inactive); in the assay on HCT-15, > 100 µM; in the assay with SF-539, > 100 µM (inactive). In the assay with SNB-19, the GI50 is > 100 µM (inactive).
Turning to `Oc1cc(-c2cccc(Br)c2)nc2cc3c(cc12)OCO3`, the GI50 in the assay with MOLT-4 was 72.3 µM (inactive); in the assay on SK-MEL-28, 2.77 µM (inactive); in the assay with SF-295, 1.06 µM (active); in the assay on HT-29 it was 30.9 µM (inactive); with MDA-MB-435, 0.883 µM (active); in the assay on HOP-62, 1.99 µM (inactive). Further, the GI50 in the assay with HCC 2998 was 15.1 µM (inactive); in the assay with HL-60, 3.57 µM (inactive); in the assay with SNB-75, 2.72 µM (inactive); with T47D, 14.6 µM (inactive); in the assay with COLO 205, 32 µM (inactive); in the assay on OVCAR-3, 3.01 µM (inactive). For the same compound, the GI50 is 5.81 µM (inactive) in the assay on UO-31; 4.56 µM (inactive) in the assay on NCI/ADR-RES; 15 µM (inactive) with RPMI-8226; 4.14 µM in the assay on HCT-15; 2.19 µM (inactive) in the assay on SF-539; 3.37 µM (inactive) in the assay with SNB-19.
Turning to `CCOP(=O)(OCC)/C(C#N)=C/c1cccn1C`, the GI50 in the assay with MOLT-4, with SK-MEL-28, in the assay on SF-295, with HT-29, in the assay on CAKI-1 and in the assay on MDA-MB-435 was > 100 µM (inactive) throughout. The GI50 with HOP-62, with HCC 2998, in the assay with SNB-75, with T47D, in the assay on COLO 205 and with OVCAR-3 was > 100 µM (inactive) each time. The GI50 is 41.6 µM (inactive) in the assay on UO-31; > 100 µM (inactive) in the assay with NCI/ADR-RES; > 100 µM (inactive) in the assay on HOP-92; > 100 µM (inactive) in the assay on RPMI-8226; > 100 µM with HCT-15; > 100 µM (inactive) in the assay on SF-539. Moreover, the GI50 in the assay with SNB-19 is > 100 µM (inactive).
Take `C#CCOCC12C=CC(O1)C1C(=O)N(C)C(=O)C12` (stereo unspecified): the GI50 with MOLT-4, in the assay on SK-MEL-28, with SF-295, with HT-29, with MDA-MB-435 and in the assay on HOP-62 was > 100 µM (inactive) throughout. In addition, the GI50 with HCC 2998, with HL-60, with SNB-75, with T47D, in the assay with COLO 205 and in the assay on OVCAR-3 was > 100 µM (inactive) throughout. Further, the GI50 in the assay with UO-31 was > 100 µM (inactive); in the assay on NCI/ADR-RES, > 100 µM (inactive); in the assay on RPMI-8226, > 100 µM (inactive); with HCT-15 it was > 100 µM; with SF-539, > 100 µM (inactive); in the assay on SNB-19, > 100 µM (inactive).
Consider `O=c1cc(CNC2CCCC2)[nH]c(=O)[nH]1`, for which the GI50 in the assay with MOLT-4, in the assay on SK-MEL-28, in the assay on SF-295, in the assay with HT-29, with CAKI-1 and with MDA-MB-435 was > 100 µM (inactive) each time. In addition, the GI50 in the assay on HOP-62, in the assay with HCC 2998, in the assay with HL-60, in the assay on SNB-75, in the assay with T47D and with COLO 205 was > 100 µM (inactive) throughout. Further, the GI50 in the assay with OVCAR-3 was > 100 µM (inactive); in the assay with UO-31, > 100 µM (inactive); in the assay with NCI/ADR-RES it was > 100 µM (inactive); in the assay with RPMI-8226, > 100 µM (inactive); in the assay with HCT-15 it was > 100 µM; in the assay on SF-539, > 100 µM (inactive). The GI50 in the assay on SNB-19 is > 100 µM (inactive).
`CO/C(=N\N=C\c1cccc(Cl)c1)c1ccncc1`: the GI50 in the assay on MOLT-4, in the assay with SF-295, with HT-29, in the assay on CAKI-1, with MDA-MB-435 and with HOP-62 was > 10 µM (inactive) each time. Further, the GI50 with HCC 2998, with HL-60, in the assay with T47D, with COLO 205, in the assay with OVCAR-3 and in the assay with UO-31 was > 10 µM (inactive) in each case. Moreover, the GI50 is > 10 µM (inactive) in the assay with NCI/ADR-RES; > 10 µM (inactive) in the assay with HOP-92; > 10 µM (inactive) with RPMI-8226; > 10 µM in the assay with HCT-15; > 10 µM (inactive) in the assay on SNB-19.
In the case of `CCCC(C)c1c(Cl)nc(Cl)nc1Cl` (stereo unspecified), the GI50 in the assay with MOLT-4 is 1.49 µM (inactive); in the assay on SK-MEL-28, 3.52 µM (inactive); with SF-295 it was 18.5 µM (inactive); in the assay with HT-29 it was 11.4 µM (inactive); with MDA-MB-435 it was 3.75 µM (inactive); with HOP-62, 8.36 µM (inactive). The GI50 was 5.18 µM (inactive) in the assay with HCC 2998; 2.1 µM (inactive) in the assay with HL-60; 14.5 µM (inactive) in the assay on SNB-75; 6.38 µM (inactive) in the assay on T47D; 4.4 µM (inactive) in the assay with COLO 205; 9.57 µM (inactive) in the assay with OVCAR-3. Besides, the GI50 in the assay on UO-31 was 19.5 µM (inactive); in the assay on NCI/ADR-RES, 33.4 µM (inactive); with RPMI-8226, 5.53 µM (inactive); in the assay on HCT-15, 7.38 µM; in the assay on SF-539 it was 5.73 µM (inactive); in the assay on SNB-19 it was 18.2 µM (inactive).
For the compound `Cc1ccc(CCCCCOc2ccc(C3=NCCO3)cc2)s1`, the GI50 with MOLT-4 is > 100 µM (inactive); with SK-MEL-28 it was > 100 µM (inactive); with SF-295, > 100 µM (inactive); with HT-29 it was > 100 µM (inactive); in the assay with CAKI-1 it was > 100 µM (inactive); in the assay with MDA-MB-435 it was 4.85 µM (inactive). Besides, the GI50 with HOP-62, in the assay on HCC 2998, in the assay with HL-60, in the assay with SNB-75, in the assay on T47D and with COLO 205 was > 100 µM (inactive) throughout. Moreover, the GI50 in the assay with OVCAR-3 was > 100 µM (inactive); in the assay with UO-31, > 100 µM (inactive); in the assay on NCI/ADR-RES, > 100 µM (inactive); in the assay on RPMI-8226, > 100 µM (inactive); in the assay with HCT-15, > 100 µM; in the assay with SNB-19 it was > 100 µM (inactive).
`CN(C)CCOC(=O)COc1ccc(Cl)cc1` [CENTROPHENOXINE HYDROCHLORIDE]: the GI50 with MOLT-4, in the assay with SK-MEL-28, in the assay with SF-295, in the assay on HT-29, with CAKI-1 and in the assay with MDA-MB-435 was > 100 µM (inactive) in each case. Also, the GI50 was > 100 µM (inactive) with HOP-62; > 100 µM (inactive) with HCC 2998; 52.8 µM (inactive) in the assay on SNB-75; > 100 µM (inactive) in the assay on T47D; > 100 µM (inactive) in the assay on COLO 205; > 100 µM (inactive) with OVCAR-3. Also, the GI50 is > 100 µM (inactive) in the assay on UO-31; > 100 µM (inactive) in the assay on NCI/ADR-RES; > 100 µM (inactive) with HOP-92; > 100 µM with HCT-15; > 100 µM (inactive) in the assay on SF-539; > 100 µM (inactive) in the assay on SNB-19.
In the case of `CCN(CC)CCC(=O)NC1c2ccc(Cl)cc2Oc2c(C)cccc21` (stereo unspecified), the GI50 with MOLT-4 is 18.6 µM (inactive); with SK-MEL-28 it was 14.6 µM (inactive); in the assay with SF-295, 18.6 µM (inactive); in the assay with HT-29, 12.9 µM (inactive); with MDA-MB-435, 15.1 µM (inactive); with HOP-62 it was > 10 µM (inactive). Further, the GI50 was 24.2 µM (inactive) in the assay with HCC 2998; 13.9 µM (inactive) in the assay on HL-60; 10.2 µM (inactive) in the assay with SNB-75; 14 µM (inactive) with T47D; 18.6 µM (inactive) with COLO 205; 15.5 µM (inactive) in the assay on OVCAR-3. For the same compound, the GI50 with UO-31 is 8.89 µM (inactive); with NCI/ADR-RES it was 16.8 µM (inactive); with HOP-92 it was 25.8 µM (inactive); with RPMI-8226 it was 24.9 µM (inactive); in the assay with HCT-15, 18.7 µM; in the assay on SF-539, 13.2 µM (inactive). In the assay with SNB-19, the GI50 is 14 µM (inactive).
